The source of these data is patent US8022206B2 (OSI Pharmaceuticals, LLC, priority 2008, dated 2011).

One assay has as its target RON (human) (Homo sapiens, UniProt Q04912). Kind of assay: RON (human) AlphaScreen kinase assay, Km of ATP. It counts as biochemical. As to conditions: AlphaScreen, Km of ATP; read-out: RON biochemical IC50. The procedure, abridged: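 Detection used PT66 AlphaScreen beads added in Tris pH 7.5/NaCl/EDTA/BSA buffer, read after 1 h incubation. Vehicle-only DMSO wells served as controls.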
In general terms: Alpha assays give light when donor and acceptor beads are brought close together.

In another assay the target is MET (human) (Homo sapiens, UniProt P08581). Kind of assay: MET (human) AlphaScreen kinase assay, Km of ATP. As to conditions: AlphaScreen, Km of ATP; read-out: Met biochemical IC50. The class given is biochemical. The procedure, abridged: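 Human MET at lot-optimised concentration in 50 mM Tris pH 7.4 buffer with 1 mM DTT, compound at 1% DMSO final; enzyme starts the reaction, 60 min at RT.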
Sequence of MET (human) (P08581 25-1390): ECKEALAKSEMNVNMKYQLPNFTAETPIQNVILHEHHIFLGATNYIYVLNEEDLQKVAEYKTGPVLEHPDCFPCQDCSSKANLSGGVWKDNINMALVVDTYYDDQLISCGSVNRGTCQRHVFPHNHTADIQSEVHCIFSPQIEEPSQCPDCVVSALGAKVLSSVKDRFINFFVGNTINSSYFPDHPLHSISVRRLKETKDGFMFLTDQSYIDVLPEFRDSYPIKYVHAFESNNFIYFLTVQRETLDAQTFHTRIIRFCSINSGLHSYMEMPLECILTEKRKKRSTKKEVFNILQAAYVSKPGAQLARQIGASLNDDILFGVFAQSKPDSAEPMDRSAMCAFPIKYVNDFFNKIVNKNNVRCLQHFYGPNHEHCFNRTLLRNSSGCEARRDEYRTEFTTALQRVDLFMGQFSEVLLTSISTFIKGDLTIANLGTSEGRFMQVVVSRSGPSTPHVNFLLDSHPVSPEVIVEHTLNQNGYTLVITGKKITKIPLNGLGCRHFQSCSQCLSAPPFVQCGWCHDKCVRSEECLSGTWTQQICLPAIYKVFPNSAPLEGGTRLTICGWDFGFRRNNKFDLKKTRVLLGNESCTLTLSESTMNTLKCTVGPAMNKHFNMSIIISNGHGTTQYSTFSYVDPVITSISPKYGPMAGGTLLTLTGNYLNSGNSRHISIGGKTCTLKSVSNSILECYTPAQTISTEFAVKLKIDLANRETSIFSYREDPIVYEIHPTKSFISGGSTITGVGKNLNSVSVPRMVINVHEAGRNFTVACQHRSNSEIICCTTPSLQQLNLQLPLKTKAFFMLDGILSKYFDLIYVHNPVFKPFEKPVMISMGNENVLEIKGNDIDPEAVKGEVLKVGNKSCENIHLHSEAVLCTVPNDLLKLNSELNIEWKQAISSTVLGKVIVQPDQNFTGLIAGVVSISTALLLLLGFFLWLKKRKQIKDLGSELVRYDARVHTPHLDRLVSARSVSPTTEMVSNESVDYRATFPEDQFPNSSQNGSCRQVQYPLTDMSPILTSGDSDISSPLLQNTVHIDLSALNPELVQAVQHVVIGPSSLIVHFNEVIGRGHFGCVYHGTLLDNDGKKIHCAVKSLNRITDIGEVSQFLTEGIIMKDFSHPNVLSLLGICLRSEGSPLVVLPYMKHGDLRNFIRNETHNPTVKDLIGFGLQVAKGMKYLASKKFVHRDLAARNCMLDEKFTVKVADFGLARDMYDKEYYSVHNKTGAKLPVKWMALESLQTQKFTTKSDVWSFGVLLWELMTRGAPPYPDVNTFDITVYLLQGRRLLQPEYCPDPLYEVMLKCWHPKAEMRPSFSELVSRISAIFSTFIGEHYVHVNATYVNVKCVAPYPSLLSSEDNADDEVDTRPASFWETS

pIC50: −log10 of the molar value.

Sequence of RON (human) (Q04912 25-1400): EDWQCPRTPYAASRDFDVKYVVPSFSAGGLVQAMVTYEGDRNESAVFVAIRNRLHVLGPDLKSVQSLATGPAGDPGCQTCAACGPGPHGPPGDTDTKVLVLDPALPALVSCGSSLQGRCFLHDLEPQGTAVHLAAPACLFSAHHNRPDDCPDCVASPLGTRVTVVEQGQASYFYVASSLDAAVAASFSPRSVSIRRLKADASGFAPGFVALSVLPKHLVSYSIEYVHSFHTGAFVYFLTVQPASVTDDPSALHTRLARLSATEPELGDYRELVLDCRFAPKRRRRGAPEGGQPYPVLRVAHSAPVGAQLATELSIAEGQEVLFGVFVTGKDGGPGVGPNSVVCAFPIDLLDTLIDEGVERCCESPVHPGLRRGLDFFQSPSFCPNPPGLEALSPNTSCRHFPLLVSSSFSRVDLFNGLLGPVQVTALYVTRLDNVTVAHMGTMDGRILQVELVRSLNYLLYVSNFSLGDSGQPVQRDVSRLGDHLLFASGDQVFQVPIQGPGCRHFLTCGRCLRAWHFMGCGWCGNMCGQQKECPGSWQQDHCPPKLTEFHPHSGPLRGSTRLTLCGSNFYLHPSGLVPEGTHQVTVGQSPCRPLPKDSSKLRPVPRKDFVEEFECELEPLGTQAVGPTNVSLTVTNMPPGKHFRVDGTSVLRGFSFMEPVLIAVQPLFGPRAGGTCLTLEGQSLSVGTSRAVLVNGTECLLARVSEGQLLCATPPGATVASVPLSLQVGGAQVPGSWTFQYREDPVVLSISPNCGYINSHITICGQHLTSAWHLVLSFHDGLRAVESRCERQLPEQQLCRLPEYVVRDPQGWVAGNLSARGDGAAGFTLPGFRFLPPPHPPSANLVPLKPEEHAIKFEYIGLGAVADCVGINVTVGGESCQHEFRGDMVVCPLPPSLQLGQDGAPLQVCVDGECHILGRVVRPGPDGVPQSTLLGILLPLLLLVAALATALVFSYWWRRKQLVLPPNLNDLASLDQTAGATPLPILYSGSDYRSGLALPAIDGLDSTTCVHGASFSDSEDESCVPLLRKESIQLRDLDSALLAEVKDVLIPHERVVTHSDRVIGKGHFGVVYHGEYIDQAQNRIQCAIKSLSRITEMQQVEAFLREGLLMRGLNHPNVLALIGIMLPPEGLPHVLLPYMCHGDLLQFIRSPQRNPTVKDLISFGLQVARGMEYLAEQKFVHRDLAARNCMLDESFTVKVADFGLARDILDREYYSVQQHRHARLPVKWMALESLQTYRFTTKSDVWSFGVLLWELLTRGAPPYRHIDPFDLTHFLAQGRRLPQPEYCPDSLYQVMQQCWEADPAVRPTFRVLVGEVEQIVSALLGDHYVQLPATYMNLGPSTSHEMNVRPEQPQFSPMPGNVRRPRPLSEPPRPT

By pIC50 is commonly meant −log10 of the IC50, conventionally taken in molar units. For the compound `CC(=O)Nc1ccc(-c2coc3c(O[C@H](C)c4c(Cl)ccc(F)c4Cl)c(N)ncc23)cn1` [Example 120, N-(5-{6-Amino-7-[(R)-1-(2,6-dichloro-3-fluorophenyl)ethoxy]furo[3,2-c]pyridin-3-yl}pyridin-2-yl)acetamide], the pIC50 on RON (human) and at MET (human) was 5.30 to 6.30 each time.

For `C[C@@H](Oc1c(N)ncc2c(-c3cccn3C)coc12)c1c(Cl)ccc(F)c1Cl` [Example 121, 7-[(R)-1-(2,6-Dichloro-3-fluorophenyl)ethoxy]-3-(1-methyl-1H-pyrrol-2-yl)furo[3,2-c]pyridin-6-ylamine], the negative logarithm of the IC50 (pIC50) at RON (human) and at MET (human) was 5.30 to 6.30 each time.

Regarding `C[C@@H](Oc1c(N)ncc2c(-c3ccc(OCCCN(C)C)nc3)coc12)c1c(Cl)ccc(F)c1Cl` [Example 122, 7-[(R)-1-(2,6-Dichloro-3-fluorophenyl)ethoxy]-3-[6-(3-dimethylaminopropoxy)pyridin-3-yl]furo[3,2-c]pyridin-6-ylamine], the pIC50 on RON (human) and on MET (human) was above 6.30 each time.

In the case of `C[C@@H](Oc1c(N)ncc2c(-c3cnc(N4CCN(C)CC4)nc3)coc12)c1c(Cl)ccc(F)c1Cl` [Example 123, 7-[(R)-1-(2,6-Dichloro-3-fluorophenyl)ethoxy]-3-[2-(4-methylpiperazin-1-yl)pyrimidin-5-yl]furo[3,2-c]pyridin-6-ylamine], the pIC50 on RON (human) and at MET (human) was 5.30 to 6.30 throughout.

As for `C[C@@H](Oc1c(N)ncc2c(-c3cnc(N(C)C)nc3)coc12)c1c(Cl)ccc(F)c1Cl` [Example 124, 7-[(R)-1-(2,6-Dichloro-3-fluorophenyl)ethoxy]-3-(2-dimethylaminopyrimidin-5-yl)furo[3,2-c]pyridin-6-ylamine], the negative logarithm of the IC50 (pIC50) on RON (human) and on MET (human) was 5.30 to 6.30 each time.

With `C[C@@H](Oc1c(N)ncc2c(-c3ccc(C#N)nc3)coc12)c1c(Cl)ccc(F)c1Cl` [Example 125, 5-{6-Amino-7-[(R)-1-(2,6-dichloro-3-fluorophenyl)-ethoxy]furo[3,2-c]pyridin-3-yl}pyridine-2-carbonitrile], the figures for the pIC50 on RON (human) and on MET (human) were 4.70 to 5.30 and 5.30 to 6.30, respectively.

For `C[C@@H](Oc1c(N)ncc2c(-c3cccc(O)c3)coc12)c1c(Cl)ccc(F)c1Cl` [Example 128, 3-{6-Amino-7-[(R)-(2,6-dichloro-3-fluorophenyl)ethoxy]-furo[3,2-c]pyridin-3-yl}phenol], the pIC50 at RON (human) and on MET (human) was 5.30 to 6.30 throughout.

As for `C[C@@H](Oc1c(N)ncc2c(-c3ccc4cc[nH]c4c3)coc12)c1c(Cl)ccc(F)c1Cl` [Example 129, 7-[(R)-(2,6-Dichloro-3-fluorophenyl)ethoxy]-3-(1H-indol-6-yl)furo[3,2-c]pyridin-6-ylamine], the pIC50 at RON (human) and on MET (human) was 5.30 to 6.30 in each case.

Take `C[C@@H](Oc1c(N)ncc2c(-c3ccc(N4CCNCC4)nc3)coc12)c1c(Cl)ccc(F)c1Cl` [Example 130, 7-[(R)-(2,6-Dichloro-3-fluorophenyl)ethoxy]-3-(6-piperazin-1-yl-pyridin-3-yl)furo[3,2-c]pyridin-6-ylamine]: the pIC50 at RON (human) and at MET (human) was above 6.30 each time.

With `C[C@@H](Oc1c(N)ncc2c(-c3ccc(N)nc3)coc12)c1c(Cl)ccc(F)c1Cl` [Example 131, 3-(6-Amino-pyridin-3-yl)-7-[(R)-(2,6-dichloro-3-fluorophenyl)ethoxy]furo[3,2-c]pyridin-6-ylamine], the values for the negative-log IC50 (pIC50) at RON (human) and on MET (human) were 5.30 to 6.30 and above 6.30, respectively.

For the compound `C[C@@H](Oc1c(N)ncc2c(-c3ccnc(N4CCNCC4)c3)coc12)c1c(Cl)ccc(F)c1Cl` [Example 132, 7-[(R)-(2,6-Dichloro-3-fluorophenyl)ethoxy]-3-(2-piperazin-1-yl-pyridin-4-yl)furo[3,2-c]pyridin-6-ylamine], the pIC50 at RON (human) and on MET (human) was above 6.30 throughout.

Regarding `C[C@@H](Oc1c(N)ncc2c(-c3ccc[nH]3)coc12)c1c(Cl)ccc(F)c1Cl` [Example 133, 7-[(R)-1-(2,6-Dichloro-3-fluorophenyl)ethoxy]-3-(1H-pyrrol-2-yl)furo[3,2-c]pyridin-6-amine], the negative-log IC50 (pIC50) at RON (human) and at MET (human) was 5.30 to 6.30 throughout.
